Assay results from article PMC6736568, “Discovery of Novel Anti-cryptosporidial Activities From Natural Products by in vitro High-Throughput Phenotypic Screening” (Frontiers in Microbiology, 2019).
Like-named read-outs stand apart in the source and are kept apart here. *1 amine or outer side, *2 acyl side, *3 side chain or, on linkers, in order; H or OH if unused. Where a SMILES comes first, the peptide text is derived from it. Bridges are numbered along the chain shown (N, C = ends). Roman numbers before positions name the chains, in order. [ ]: non-standard residue; d: D form. Actinocin(9to1) = Cc1c2oc3c(C)ccc(C(=O)[*:1])c3nc-2c(C(=O)[*:2])c(N)c1=O; NMeV = CN[C@H](C(=O)O)C(C)C; Sar = CNCC(=O)O

Assays:
in vitro = details: for cytotoxicity at 41 h, 10 µM: human
Cryptosporidium parvum [1] = assay: qRT-PCR assay of the growth of C. parvum in vitro in HCT-8 host cells (primary and secondary screening, EC50); assay type: cell-based; details: Cryptosporidium parvum; for inhibition at 10 µM / inhibition at 3.3 µM: HCT-8; for inhibition at 10 µM: primary screening at 10 uM, read-out: Inhibition (%); for inhibition at 3.3 µM: secondary screening at 3.3 uM, read-out: % Inhibition (3.3 uM); for EC50: growth of C. parvum in vitro, HCT-8 host cells, 44 h infection
HCT-8 cells = assay: In vitro cytotoxicity MTS assay on host cells; assay type: cell-based, human; details: 41 h
Method: The plates were measured for absorbance at 490 nm in 15 min intervals in a SmartReader 96 microplate reader (Accuris, Edison, NJ, United States). Cytotoxicity of a compound was quantified by calculating the half maximal toxic concentration on host cells (TC50). An in vitro safety interval (SI) was calculated by determining the ratio between TC50 and EC50 values (i.e., SI = TC50/EC50).

[2] = tested on: cryptosporidial infection; parameters: method as in Lemeteil et al., 1993; details: ref Lemeteil et al., 1993; cited from earlier work
Cryptosporidium parvum [3] = assay: Effect on different parasite developmental stages in vitro (qRT-PCR); assay type: cell-based; details: cedrelone 1.0 μM, Deox B 7,4 2.0 μM, baicalein 3.3 μM, PRM 150 μM
Method: We selected three top hits derived from plants for evaluating their activity against various developmental stages of C. parvum. For evaluating the effect on the parasite invasion (i.e., 0–3 hpi treatment groups), host cell monolayers will be incubated with C. parvum oocysts (10^5 oocysts/well) in 96-well plates together with individual compounds at around EC80 concentrations. For evaluating the effect on various stages of intracellular parasites (i.e., 3–10 hpi, […], 22–44 hpi, and 3–44 hpi treatment groups), host cell monolayers were incubated with C. parvum oocysts (50,000 oocysts/well) for 3 h, followed by the removal of uninvaded parasites by a medium exchange. These time points roughly corresponded to the invasion into host cells (0–3 hpi), the development of first and some second generation of merogony (3–22 hpi) or second generation of merogony and gametogenesis (22–44 hpi). Individual compounds at EC80 final concentrations were added into wells at specified post-infection time points, and plates were incubated for specified durations of post-infection times. Cell lysates were prepared at the end of each treatment for qRT-PCR.
(§1) In all experiments, negative controls were treated with diluent (0.5% DMSO) for the same durations of corresponding drug treatment groups. All experiments include least three biological replicates for each compound in the in vitro drug treatment assay and two technical replicates for each biological replicate in the qRT-PCR assay.

Cryptosporidium parvum [4] = assay: Drug withdrawal assay (qRT-PCR at 44 hpi); assay type: cell-based; details: assayed at 44 hpi, cedrelone 1.0 μM, Deox B 7,4 2.0 μM, baicalein 3.3 μM, PRM 150 μM
Method: For drug withdrawal assay, HCT-8 cells were cultured and inoculated with C. parvum oocysts (50,000 oocysts/well) for 3 h. After a medium exchange, individual compounds at EC80 final concentrations were added into wells. Compounds were removed at 22 hpi time point by a medium exchange, and infected cells were allowed to grow up to 44 hpi (3–22 hpi treatment groups). A full course of treatment for each compound was included as control (3–44 hpi treatment groups). Cell lysates were prepared at 44 hpi time point for qRT-PCR.
as §1

[5] = mouse, ip; ref MicroSource NatProd Collection note; cited from earlier work
[6] = primary screening at 10 uM, treated vs control

Compound: Cc1c2oc3c(C)ccc(C(=O)N[C@@H]4C(=O)N[C@H](C(C)C)C(=O)N5CCC[C@H]5C(=O)N(C)CC(=O)N(C)[C@@H](C(C)C)C(=O)O[C@@H]4C)c3nc-2c(C(=O)N[C@@H]2C(=O)N[C@H](C(C)C)C(=O)N3CCC[C@H]3C(=O)N(C)CC(=O)N(C)[C@@H](C(C)C)C(=O)O[C@@H]2C)c(N)c1=O [Dactinomycin, reference compound] (I: T[dV]P[Sar][NMeV] / II: T[dV]P[Sar][NMeV]; ester I:1-I:C, II:1-II:C; linker I:N-II:N via Actinocin(9to1))
- Hs18S ΔCT (HCT-8 host cells (Hs18S); [6]): 1.50
- cytotoxicity at 10 µM (in vitro): 64.6%
- inhibition at 10 µM (Cryptosporidium parvum [1]): 94.3%
- inhibition at 3.3 µM (Cryptosporidium parvum [1]): 97%
- EC50 (Cryptosporidium parvum [1]): 314 nM
- TC50 (HCT-8 cells; HCT-8 cells, MTS): 2820 nM

Compound: COc1cccc2c1C(=O)c1c(O)c3c(c(O)c1C2=O)C[C@@](O)(C(C)=O)C[C@@H]3O[C@H]1C[C@H](N)[C@H](O)[C@H](C)O1 [Daunorubicin, reference compound]
- Hs18S ΔCT (HCT-8 host cells (Hs18S); human, 41 h, 10 μM): 0.99
- efficacy on cryptosporidial infection in rats [2]: ineffective
- cytotoxicity at 41 h, 10 µM (in vitro): 49.5%
- inhibition at 10 µM (Cryptosporidium parvum [1]): 76.8%
- inhibition at 3.3 µM (Cryptosporidium parvum [1]): 71%
- EC50 (Cryptosporidium parvum [1]): 1490 nM
- TC50 (HCT-8 cells; human): 42600 nM

Compound: CC1(C)C(=O)C=C[C@]2(C)[C@H]3CC[C@@]4(C)[C@H](c5ccoc5)OC(=O)[C@H]5O[C@]54[C@]3(C)C(=O)C[C@@H]12 [Deacetoxy-7-oxogedunin]
- Hs18S ΔCT (HCT-8 host cells (Hs18S); [6]): 0.39
- cytotoxicity at 10 µM (in vitro): 23.6%
- inhibition at 10 µM (Cryptosporidium parvum [1]): 88.7%
- inhibition at 3.3 µM (Cryptosporidium parvum [1]): 77%
- EC50 (Cryptosporidium parvum [1]): 1940 nM
- TC50 (HCT-8 cells; HCT-8 cells, MTS): 12800 nM

Compound: CC1(C)C(=O)C=C[C@]2(C)[C@H]3CC[C@@]4(C)[C@H](c5ccoc5)OC(=O)[C@H]5O[C@]54[C@]3(C)[C@H](O)C[C@@H]12 [Deacetylgedunin]
- Hs18S ΔCT (HCT-8 host cells (Hs18S); [6]): 0.23
- cytotoxicity at 10 µM (in vitro): 14.8%
- inhibition at 10 µM (Cryptosporidium parvum [1]): 91.1%
- inhibition at 3.3 µM (Cryptosporidium parvum [1]): 56%
- EC50 (Cryptosporidium parvum [1]): 1770 nM
- TC50 (HCT-8 cells; HCT-8 cells, MTS): 30900 nM

Compound: COc1ccc2c(c1)OCC(Cc1ccc(OC)c(OC(C)=O)c1)C2=O (stereo not drawn) [Deoxysappanone B 7,3′-dimethyl ether acetate]
- Hs18S ΔCT (HCT-8 host cells (Hs18S); human, 41 h, 10 μM): 0.24
- cytotoxicity at 41 h, 10 µM (in vitro): 15.5%
- inhibition at 10 µM (Cryptosporidium parvum [1]): 87.4%
- inhibition at 3.3 µM (Cryptosporidium parvum [1]): 71%
- EC50 (Cryptosporidium parvum [1]): 1190 nM
- TC50 (HCT-8 cells; HCT-8 cells, MTS): >100000 nM

Compound: COc1ccc2c(c1)OC[C@H](Cc1ccc(OC)c(O)c1)C2=O [Deoxysappanone B 7,4′-dimethyl ether]
- inhibition at 2 µM (Cryptosporidium parvum [3]; treatment 0-3 hpi (excystation and invasion)): -5.5 ± 7.2%
- inhibition at 2 µM (Cryptosporidium parvum [3]; treatment 3-10 hpi): 9.1 ± 10.4%
- inhibition at 2 µM (Cryptosporidium parvum [3]; treatment 3-22 hpi, assayed at end of treatment): 18%
- inhibition at 2 µM (Cryptosporidium parvum [3]; treatment 3-44 hpi (full course)): 67.2%
- inhibition at 2 µM (Cryptosporidium parvum [3]; treatment 22-44 hpi): 22.9 ± 6.8%
- Hs18S ΔCT (HCT-8 host cells (Hs18S); human, 41 h, 10 μM): 0.62
- cytotoxicity at 41 h, 10 µM (in vitro): 35.1%
- inhibition at 2 µM (Cryptosporidium parvum [4]; full course 3-44 hpi, read-out: 3-44 hpi Inhibition): 73.8%
- inhibition at 2 µM (Cryptosporidium parvum [4]; treated 3-22 hpi, compound removed, read-out: 3-22 hpi Inhibition): 61.9%
- inhibition at 10 µM (Cryptosporidium parvum [1]): 91.3%
- inhibition at 3.3 µM (Cryptosporidium parvum [1]): 52%
- EC50 (Cryptosporidium parvum [1]): 734 nM
- TC50 (HCT-8 cells; HCT-8 cells, MTS): 64900 nM

Compound: CC(C)=CCCC1(C)C=Cc2c(O)c3c(c(CC=C(C)C)c2O1)OC12C(=CC4CC1C(C)(C)OC2(C/C=C(/C)C(=O)O)C4O)C3=O (stereo not drawn) [Dihydrogambogic acid]
- Hs18S ΔCT (HCT-8 host cells (Hs18S); [6]): -0.60
- cytotoxicity at 10 µM (in vitro): -52%
- inhibition at 10 µM (Cryptosporidium parvum [1]): 97.7%
- inhibition at 3.3 µM (Cryptosporidium parvum [1]): 57%
- EC50 (Cryptosporidium parvum [1]): 1670 nM
- TC50 (HCT-8 cells; human): 6310 nM

Compound: Cc1cccc2c3c(ccc12)C1=C(C(=O)C3=O)[C@@H](C)CO1 [Dihydrotanshinone I]
- Hs18S ΔCT (HCT-8 host cells (Hs18S); human, 41 h, 10 μM): 0.00
- cytotoxicity at 41 h, 10 µM (in vitro): 0.2%
- inhibition at 10 µM (Cryptosporidium parvum [1]): 87%
- inhibition at 3.3 µM (Cryptosporidium parvum [1]): 75%
- EC50 (Cryptosporidium parvum [1]): 3080 nM
- TC50 (HCT-8 cells; human): 25000 nM

Compound: CC[C@H](C)C(=O)O[C@H]1C[C@@H](C)C=C2C=C[C@H](C)[C@H](CC[C@@H]3C[C@@H](O)CC(=O)O3)[C@H]21 [Lovastatin, reference compound]
- Hs18S ΔCT (HCT-8 host cells (Hs18S); human, 41 h, 10 μM): 0.60
- cytotoxicity at 41 h, 10 µM (in vitro): 34.1%
- inhibition at 10 µM (Cryptosporidium parvum [1]): 85.8%
- inhibition at 3.3 µM (Cryptosporidium parvum [1]): 58%
- EC50 (Cryptosporidium parvum [1]): 2410 nM
- TC50 (HCT-8 cells; HCT-8 cells, MTS): >100000 nM

Compound: CO[C@@]12[C@H](COC(N)=O)C3=C(C(=O)C(C)=C(N)C3=O)N1C[C@@H]1N[C@@H]12 [Mitomycin, reference compound]
- Hs18S ΔCT (HCT-8 host cells (Hs18S)): 1.34
- cytotoxicity at 10 µM (in vitro): 60.5%
- inhibition at 10 µM (Cryptosporidium parvum [1]): 93.7%
- inhibition at 3.3 µM (Cryptosporidium parvum [1]): 78%
- EC50 (Cryptosporidium parvum [1]): 133 nM
- TC50 (HCT-8 cells; HCT-8 cells, MTS): 13100 nM

Compound: COC1=C[C@@H]2[C@@H]3Cc4ccc(OC)c(O)c4[C@]2(CCN3C)CC1=O [SINOMENINE]
- Hs18S ΔCT (HCT-8 host cells (Hs18S); [6]): -0.78
- LD50 [5]: 285 mg/kg
- cytotoxicity at 10 µM (in vitro): -71.8%
- inhibition at 10 µM (Cryptosporidium parvum [1]): -83.5%

Compound: Cc1coc2c1C(=O)C(=O)c1c-2ccc2c1CCCC2(C)C [Tanshinone IIA]
- Hs18S ΔCT (HCT-8 host cells (Hs18S); [6]): 0.08
- cytotoxicity at 10 µM (in vitro): 5.6%
- inhibition at 10 µM (Cryptosporidium parvum [1]): 82.7%
- inhibition at 3.3 µM (Cryptosporidium parvum [1]): 63%
- EC50 (Cryptosporidium parvum [1]): 964 nM
- TC50 (HCT-8 cells; HCT-8 cells, MTS): >100000 nM

Compound: CC(C)[C@@H]1NC(=O)[C@H](C)OC(=O)[C@@H](C(C)C)NC(=O)[C@@H](C(C)C)OC(=O)[C@H](C(C)C)NC(=O)[C@H](C)OC(=O)[C@@H](C(C)C)NC(=O)[C@@H](C(C)C)OC(=O)[C@H](C(C)C)NC(=O)[C@H](C)OC(=O)[C@@H](C(C)C)NC(=O)[C@@H](C(C)C)OC1=O [Valinomycin, reference compound]
- Hs18S ΔCT (HCT-8 host cells (Hs18S); [6]): -0.13
- cytotoxicity at 10 µM (in vitro): -9.2%
- inhibition at 10 µM (Cryptosporidium parvum [1]): 92.3%
- inhibition at 3.3 µM (Cryptosporidium parvum [1]): 87%
- EC50 (Cryptosporidium parvum [1]): 122 nM
- TC50 (HCT-8 cells; HCT-8 cells, MTS): >50000 nM
